{"source": "patent US11739043B2", "about": "“Illudin analogs, uses thereof, and methods for synthesizing the same” (Lantern Pharma Inc., priority 2018, dated 2023)", "type_in_all_cases": "cell-based", "key": {"[1]": {"tested_on": "DU145 cell line", "assay": "Cytotoxicity / growth inhibition, 96-well CellTiter-Glo assay, DU145", "details": "for GI50: Homo sapiens, DU-145, 72 h, DU145, prostate cancer cell line, 3-day assay, read-out: GI50, concentration that inhibits 50% cell growth", "protocol": "(§1) Cytotoxicity. The growth-inhibition activities of both purified UMAF (also referred to as UMAF in this example) optical enantiomers were studied in a standard 96-well cell-based assay using representative cell lines from prostate, ovarian, and lung cancers. The concentrations that cause a 50% inhibition of cell growth (GI50) were determined using a luminescent vital assay reagent (CellTiter-Glo®, Promega Corporation). The growth inhibition curves as a function of UMAF concentration are shown from a representative assay. […] The GI50 concentrations of the two forms for the six cell lines are shown below."}, "[2]": {"tested_on": "PC3 cell line", "assay": "Cytotoxicity / growth inhibition, 96-well CellTiter-Glo assay, PC3", "details": "Homo sapiens, PC-3, 72 h; PC3, prostate cancer cell line, 3-day assay; read-out: GI50, concentration that inhibits 50% cell growth", "protocol": "as §1"}, "[3]": {"tested_on": "OVCAR-3 cell line", "assay": "Cytotoxicity / growth inhibition, 96-well CellTiter-Glo assay, OVCAR-3", "details": "for GI50: Homo sapiens, 72 h, OVCAR-3, ovarian cancer cell line, 3-day assay, read-out: GI50, concentration that inhibits 50% cell growth", "protocol": "as §1"}, "[4]": {"tested_on": "SK-OV3 cell line", "assay": "Cytotoxicity / growth inhibition, 96-well CellTiter-Glo assay, SK-OV3", "details": "for GI50: Homo sapiens, SK-OV-3, 72 h, SK-OV3, ovarian cancer cell line, 3-day assay, read-out: GI50, concentration that inhibits 50% cell growth", "protocol": "as §1"}, "[5]": {"tested_on": "HCC827 cell line", "assay": "Cytotoxicity / growth inhibition, 96-well CellTiter-Glo assay, HCC827", "details": "Homo sapiens, 72 h; HCC827, lung cancer cell line, 3-day assay; read-out: GI50, concentration that inhibits 50% cell growth", "protocol": "as §1"}, "[6]": {"tested_on": "H1975 cell line", "assay": "Cytotoxicity / growth inhibition, 96-well CellTiter-Glo assay, H1975", "details": "for GI50: Homo sapiens, NCI-H1975, 72 h, H1975, lung cancer cell line, 3-day assay, read-out: GI50, concentration that inhibits 50% cell growth", "protocol": "as §1"}}}
{"compound": "CC1=C(CN(O)C(N)=O)C2=C(C)C3(CC3)[C@@](C)(O)C(=O)C2=C1", "note": "[(−)-UMAF, (−)-hydroxyureamethylacylfulvene]", "values": [{"measurement": "GI50", "setting": "[1]", "result": 506, "unit": "nM"}, {"measurement": "GI50", "setting": "[2]", "result": 824, "unit": "nM"}, {"measurement": "GI50", "setting": "[3]", "result": 1820, "unit": "nM"}, {"measurement": "GI50", "setting": "[4]", "result": 2400, "unit": "nM"}, {"measurement": "GI50", "setting": "[5]", "result": 1640, "unit": "nM"}, {"measurement": "GI50", "setting": "[6]", "result": 6320, "unit": "nM"}]}
{"compound": "CC1=C(CN(O)C(N)=O)C2=C(C)C3(CC3)[C@](C)(O)C(=O)C2=C1", "note": "[(+)-UMAF, (+)-hydroxyureamethylacylfulvene]", "values": [{"measurement": "toxicity compared between the two enantiomers (growth inhibition curves)", "setting": "[1]; DU145, FIG. 4", "result": "more toxic"}, {"measurement": "GI50", "setting": "[1]", "result": 34.8, "unit": "nM"}, {"measurement": "GI50", "setting": "[2]", "result": 1120, "unit": "nM"}, {"measurement": "GI50", "setting": "[3]", "result": 254, "unit": "nM"}, {"measurement": "toxicity compared between the two enantiomers (growth inhibition curves)", "setting": "[3]; OVCAR3, FIG. 6", "result": "more toxic"}, {"measurement": "GI50", "setting": "[4]", "result": 554, "unit": "nM"}, {"measurement": "toxicity compared between the two enantiomers (growth inhibition curves)", "setting": "[4]; SK-OV3, FIG. 7", "result": "more toxic"}, {"measurement": "GI50", "setting": "[5]", "result": 897, "unit": "nM"}, {"measurement": "toxicity compared between the two enantiomers (growth inhibition curves)", "setting": "[6]; H1975, FIG. 9", "result": "more toxic"}, {"measurement": "GI50", "setting": "[6]", "result": 287, "unit": "nM"}]}
